The record followed here is publication PMC8175350, “Drug repurposing screens identify chemical entities for the development of COVID-19 interventions” (Nature Communications, 2021).

pEC50: −log10 of the molar value. Counter-ions that a name gives are not always drawn. Like-named read-outs stand apart in the source and are kept apart here. Bounds are passed on as bounds.

Data set [1] relates to SARS-CoV-2. Nature of the data set: microbe, parasite or virus in culture. It counts as cell-based. The settings on record: for Emax: Severe acute respiratory syndrome coronavirus 2, HeLa-ACE2, 24 h, curve plateau at infinite concentration, read-out: HeLa-ACE2 CoV-2 Sinf Average; for pEC50: Severe acute respiratory syndrome coronavirus 2, HeLa-ACE2, detail block, read-out: HeLa-ACE2 CoV-2 EC50 GeoMean.

The nature of data set [2]: Uninfected HeLa-ACE2 24 h live/dead cytotoxicity counter screen. It counts as cell-based, human. The settings on record: human, uninfected HeLa-ACE2 cells, detail block; read-out: HeLa-ACE2 uninfected cytotoxicity CC50 GeoMean.
In data set [3] the test system is HeLa-ACE2 cells. The data set is described as above. It counts as cell-based, human. The settings on record: curve plateau at infinite concentration.
Data set [4] concerns SARS-CoV-2. Nature of the data set: microbe, parasite or virus in culture. The settings on record: for Emax: Severe acute respiratory syndrome coronavirus 2, Calu-3, 48 h, curve plateau at infinite concentration, read-out: Calu-3 CoV-2 Sinf Average; for pEC50: Severe acute respiratory syndrome coronavirus 2, Calu-3, detail block, read-out: Calu-3 CoV-2 EC50 GeoMean; for Calu-3 SI: selectivity index, uninfected Calu-3 CC50 / Calu-3 SARS-CoV-2 EC50. The data set is classed as cell-based.

Data set [5] concerns SARS-CoV-2. Nature of the data set: microbe, parasite or virus in culture. The data set is classed as cell-based. The settings on record: for Emax: Severe acute respiratory syndrome coronavirus 2, HeLa-ACE2, 10 h, curve plateau at infinite concentration, read-out: HeLa-ACE2 TOA CoV-2 Sinf Average; for pEC50: Severe acute respiratory syndrome coronavirus 2, HeLa-ACE2, detail block, read-out: HeLa-ACE2 TOA CoV-2 EC50 GeoMean.

Data set [6] relates to HeLa-ACE2 cells. Nature of the data set: cells. The data set is classed as cell-based, human. The settings on record: Homo sapiens, HeLa-ACE2; read-out: HeLa-ACE2 TOA cell count EC50 GeoMean.
For data set [7], the system named is HeLa-ACE2 cells. Nature of the data set: cells. The settings on record: Homo sapiens; for Emax: HeLa-ACE2, 24 h, read-out: HeLa-ACE2 cell count Sinf Average; for pEC50: HeLa-ACE2, read-out: HeLa-ACE2 cell count EC50 GeoMean, detail block.
The subject of data set [8] is Calu-3 cells. Nature of the data set: cells. The settings on record: Homo sapiens; for pEC50: Calu-3, read-out: Calu-3 cell count EC50 GeoMean, detail block.
The nature of data set [9]: HepG2 72 h CellTiter-Glo cytotoxicity. The settings on record: human, HepG2 cells. On the technique in general: In ATP-based viability assays light output follows the ATP content of the culture.
For another data set, the system named is HepG2. Nature of the data set: HepG2 72 h CellTiter-Glo cytotoxicity. The settings on record: 72 h.
The nature of data set [10]: HEK293T 72 h CellTiter-Glo cytotoxicity. The settings on record: human, HEK293T cells.
The test system of a further data set is HEK293T. Nature of the data set: HEK293T 72 h CellTiter-Glo cytotoxicity. The settings on record: 72 h.
The nature of data set [11]: Uninfected Calu-3 48 h Cell-Titer Glo cytotoxicity counter screen. The settings on record: human, uninfected Calu-3 cells, Calu-3 uninfected cytotoxicity CC50 GeoMean, detail block.
For data set [12], the system named is Calu-3 cells. The data set is described as above. The settings on record: curve plateau at infinite concentration.
[13] abbreviates: selectivity index, uninfected HeLa-ACE2 CC50 / SARS-CoV-2 EC50.

What is called pEC50 is the EC50 on a negative log10 scale, so that one unit is a factor of ten. As a reminder, the CC50 is the concentration that lowers cell viability or growth by half. On to `OCCN1CCN(CC/C=C2/c3ccccc3Sc3ccc(Cl)cc32)CC1` [Zuclopenthixol], for which the Emax in the data set with SARS-CoV-2 [1] was found to be 100%; with SARS-CoV-2 [4], 100%; with SARS-CoV-2 [5] it was 99%; in the data set on HeLa-ACE2 cells [7], 100%. Moreover, the pEC50 in the data set on SARS-CoV-2 [1] was 5.68; in the data set on SARS-CoV-2 [4], under 5.04; in the data set on SARS-CoV-2 [5] it was 5.21; in the data set with HeLa-ACE2 cells [6], under 5.02; in the data set with HeLa-ACE2 cells [7], under 5.02; in the data set with Calu-3 cells [8] it was under 5.00. In addition, in the data set with SARS-CoV-2 [1] (setting [13]), the “HeLa-ACE2 SI” value is over 8.08. Moreover, the CC50 at 24 h in data set [2] was over 16.8 µM. The “HeLa-ACE2 uninfected cytotoxicity Sinf Average” value in the data set on HeLa-ACE2 cells [3] is recorded as -100%. Moreover, the “Calu-3 SI” value in the data set on SARS-CoV-2 [4] was 1.06. Moreover, the “TOA:HeLa-ACE2 EC50 Ratio” value with SARS-CoV-2 [5] came out at 2.929. The CC50 at 72 h in data set [9] came to 12.5 µM; in data set [10], 18.6 µM. Further, the “HepG2 72-hour cytotoxicity Sinf Average” value in the data set on HepG2 is recorded as -100%. Further, the “HEK293T 72-hour cytotoxicty Sinf Average” value in the data set on HEK293T is on record as -100%. The 50% cytotoxic concentration (CC50) at 48 h in data set [11] is 9.6 µM. Besides, in the data set on Calu-3 cells [12], the “Calu-3 uninfected cytotoxicity Sinf Average” value is reported as -100%.
As for `CCCCCCOC(=O)NC(=N)c1ccc(NCc2nc3cc(C(=O)N(CCC(=O)OCC)c4ccccn4)ccc3n2C)cc1` [Dabigatran etexilate mesilate], the “HeLa-ACE2 SI” value in the data set on SARS-CoV-2 [1] was over 6.50. The Emax in the data set on SARS-CoV-2 [1] worked out at 100%; in the data set on SARS-CoV-2 [5] it was 100%; with Calu-3 cells [8] (Calu-3, 48 h, read-out: Calu-3 cell count Sinf Average), 100%. Besides, the pEC50 was 5.39 with SARS-CoV-2 [1]; under 5.00 in the data set on SARS-CoV-2 [4]; under 5.02 in the data set on SARS-CoV-2 [5]; under 5.02 in the data set with HeLa-ACE2 cells [6]; under 5.02 in the data set on HeLa-ACE2 cells [7]; under 5.00 in the data set with Calu-3 cells [8]. Also, the 50% cytotoxic concentration (CC50) at 24 h in data set [2] is over 26.5 µM. In the data set on HeLa-ACE2 cells [3], the “HeLa-ACE2 uninfected cytotoxicity Sinf Average” value is on record as -97%. Also, the “TOA:HeLa-ACE2 EC50 Ratio” value with SARS-CoV-2 [5] (TOA EC50 / HeLa-ACE2 SARS-CoV-2 EC50) was found to be 2.329. Besides, the CC50 at 72 h in data set [9] came out at 13.1 µM; in data set [10], 8.53 µM. The “HepG2 72-hour cytotoxicity Sinf Average” value with HepG2 is -96%. Besides, the “HEK293T 72-hour cytotoxicty Sinf Average” value in the data set on HEK293T was -101%. In addition, the CC50 at 48 h in data set [11] is over 29.9 µM. The “Calu-3 uninfected cytotoxicity Sinf Average” value in the data set on Calu-3 cells [12] is listed as -100%.
Consider `CC(CN(C)C)CN1c2ccccc2CCc2ccccc21` (stereo not drawn) [Trimipramine maleate], for which the Emax came out at 99% in the data set on SARS-CoV-2 [1], 100% in the data set with SARS-CoV-2 [4] and 100% with SARS-CoV-2 [5]. Moreover, the pEC50 is 5.68 in the data set on SARS-CoV-2 [1]; under 5.00 in the data set on SARS-CoV-2 [4]; 5.27 with SARS-CoV-2 [5]; under 5.02 in the data set on HeLa-ACE2 cells [6]; under 5.02 in the data set on HeLa-ACE2 cells [7]; under 5.00 with Calu-3 cells [8]. The “HeLa-ACE2 SI” value in the data set on SARS-CoV-2 [1] (setting [13]) worked out at 10.11. Moreover, in data set [2], the cytotoxic concentration (CC50) at 24 h is 21.3 µM. Moreover, the “HeLa-ACE2 uninfected cytotoxicity Sinf Average” value in the data set with HeLa-ACE2 cells [3] was -100%. Besides, the “Calu-3 SI” value in the data set with SARS-CoV-2 [4] turned out to be 2.90. Besides, in the data set with SARS-CoV-2 [5], the “TOA:HeLa-ACE2 EC50 Ratio” value worked out at 2.576. Also, the results for the CC50 at 72 h in data set [9] and in [10] were 18.8 µM and 12.8 µM, respectively. Further, the “HepG2 72-hour cytotoxicity Sinf Average” value in the data set on HepG2 is on record as -100%. In addition, the “HEK293T 72-hour cytotoxicty Sinf Average” value with HEK293T was -102%. This compound yielded a CC50 at 48 h in [11] of over 29 µM. In the data set with Calu-3 cells [12], the “Calu-3 uninfected cytotoxicity Sinf Average” value is -100%.
`CCc1ccc2c(c1)N(CC(C)CN(C)C)c1ccccc1S2` (stereo not drawn) [Ethylisobutrazine hydrochloride]: the Emax with SARS-CoV-2 [1], with SARS-CoV-2 [4], with SARS-CoV-2 [5] and in the data set on HeLa-ACE2 cells [7] was 100% throughout. In addition, the pEC50 in the data set with SARS-CoV-2 [1] is 5.70; in the data set on SARS-CoV-2 [4], under 5.00; with SARS-CoV-2 [5], 5.42; with HeLa-ACE2 cells [6], under 5.02; in the data set on HeLa-ACE2 cells [7], under 5.02; with Calu-3 cells [8], under 5.00. Further, the “HeLa-ACE2 SI” value in the data set on SARS-CoV-2 [1] (setting [13]) turned out to be 10.48. Moreover, in data set [2], the CC50 at 24 h stood at 20.9 µM. In the data set on HeLa-ACE2 cells [3], the “HeLa-ACE2 uninfected cytotoxicity Sinf Average” value is given as -100%. Moreover, the “Calu-3 SI” value in the data set on SARS-CoV-2 [4] amounted to 1.57. Further, in the data set with SARS-CoV-2 [5], the “TOA:HeLa-ACE2 EC50 Ratio” value was 1.889. The half-maximal cytotoxic concentration (CC50) at 72 h in data set [9] is 14.1 µM; in data set [10], 10.3 µM. Moreover, the “HepG2 72-hour cytotoxicity Sinf Average” value in the data set with HepG2 was -100%. For the same compound, the “HEK293T 72-hour cytotoxicty Sinf Average” value in the data set on HEK293T is -104%. In data set [11], this compound displayed a cytotoxic concentration (CC50) at 48 h of 15.7 µM. In the data set with Calu-3 cells [12], the “Calu-3 uninfected cytotoxicity Sinf Average” value is listed as -100%.
